Source: paper PMC11532403 (Signal Transduction and Targeted Therapy, 2024)
Where two headings read alike, the source gives them in different places.

How the values were obtained:
RET^G810S = molecular target: T1, RET^G810S (Homo sapiens, UniProt P07949, G810S); assay: HTRF kinEASE-TK kinase assay; conditions: ATP at Km; read-out: Biochemical IC50 RET^G810S
T1 construct: RET (residues 658-1114) was cloned into pFastBac vector containing an N-terminal Glutathione S-transferase (GST) tag; made in house; host or cells: Sf9 insect cells (baculovirus)
T1 sequence (P07949 658-1114 G810S): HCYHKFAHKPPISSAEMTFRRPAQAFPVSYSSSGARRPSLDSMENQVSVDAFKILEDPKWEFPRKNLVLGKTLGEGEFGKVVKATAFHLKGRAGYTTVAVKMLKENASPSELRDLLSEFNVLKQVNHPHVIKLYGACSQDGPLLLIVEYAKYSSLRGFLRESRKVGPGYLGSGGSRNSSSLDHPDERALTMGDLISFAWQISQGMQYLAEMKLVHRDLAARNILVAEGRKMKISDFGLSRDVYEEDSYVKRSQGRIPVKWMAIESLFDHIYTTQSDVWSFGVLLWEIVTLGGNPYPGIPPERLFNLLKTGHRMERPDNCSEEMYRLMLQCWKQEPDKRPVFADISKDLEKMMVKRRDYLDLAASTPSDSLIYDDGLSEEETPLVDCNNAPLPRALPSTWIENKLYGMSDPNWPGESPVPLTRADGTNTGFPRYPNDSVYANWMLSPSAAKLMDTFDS
Description: (§1) RET (residues 658-1114) was cloned into pFastBac vector containing an N-terminal Glutathione S-transferase (GST) tag. Mutagenesis was performed on this vector to generate the RET^V804M single mutant: RETV804MmutF: […]a[…] and RETV804MmutR: […]t[…]; the RET^M918T single mutant: RETM918TmutF: […]c[…] and RETM918TmutR: […]g[…]; the RET^G810S single mutant: RETG810SmutF: […]tc[…] and RETG810SmutR: […]ga[…]. Recombinant baculovirus for expression of GST-RET was generated by co-transfection of Sf9 cells. Plaque-purified viruses were amplified, titrated and used to infect Sf9 cells incubated at 27 °C and 80 rpm. Cells were harvested 72 h post infection for protein purification.
(§2) Frozen cell pellets (1 liter culture/each) were thawed and resuspended in 20 ml of buffer A (50mM Tris-HCl, pH 7.5, 150mM NaCl, 0.1mM EDTA, 0.5% Triton X-100, 20% glycerol and 1* protease inhibitor [#539134-1SETCN, Merck]) and sonicated. The cell lysates were centrifuged at 20000 rpm for 40 min at 4 °C, then applied to GSH-Sepharose 4 Fast Flow (GE Healthcare) at 4 °C. After washing twice with 10 mL of buffer B (50mM Tris-HCl, pH 7.5, 150mM NaCl, 0.1 mM EDTA, 20% glycerol), the protein was eluted with elution buffer (50mM Tris-HCl, pH 7.5, 150mM NaCl, 0.1mM EDTA, 20% glycerol, 20mM Glutathione, 1 mM DTT) and concentrated using Amicon Ultra-15. Purities of proteins were 90% as determined by SDS-PAGE and Coomassie Blue stain.
(§3) Kinase activity was detected using CisBio HTRF kinEASE-TK kit. The assay was performed in 384-well white plates (#3574, Corning) in a reaction volume of 10 μL containing a final concentration of 50 mM HEPES, pH 7.5, 0.1 mM Na3VO4,0.01% BSA, 0.001% Tween-20, 5 mM MgCl2, […], 1 mM DTT, 1 μM TK-Substrate-biotin. The reaction was initiated by the addition of ATP at Km and indicated recombinant RET proteins. […] After incubation at 23 °C for 1 hour, FRET signal was measured on an EnVision reader (PerkinElmer Inc.).

RET^WT = molecular target: T2, RET^WT (Homo sapiens, UniProt P07949); assay: HTRF kinEASE-TK kinase assay; conditions: ATP at Km; read-out: Biochemical IC50 RET^WT
T2 construct: RET (residues 658-1114) was cloned into pFastBac vector containing an N-terminal Glutathione S-transferase (GST) tag; made in house; host or cells: Sf9 insect cells (baculovirus)
T2 sequence (P07949 658-1114): as the sequence (P07949 658-1114 G810S) above, with S153G counted along it
Description: as §1, §2, §3

hERG potassium channel = hERG potassium channel (Homo sapiens, UniProt Q12809); assay: hERG whole-cell patch clamp; format: cell-based; conditions: ± 368.5 nM, read-out: hERG current IC50
Chain of hERG potassium channel (Q12809 whole entry): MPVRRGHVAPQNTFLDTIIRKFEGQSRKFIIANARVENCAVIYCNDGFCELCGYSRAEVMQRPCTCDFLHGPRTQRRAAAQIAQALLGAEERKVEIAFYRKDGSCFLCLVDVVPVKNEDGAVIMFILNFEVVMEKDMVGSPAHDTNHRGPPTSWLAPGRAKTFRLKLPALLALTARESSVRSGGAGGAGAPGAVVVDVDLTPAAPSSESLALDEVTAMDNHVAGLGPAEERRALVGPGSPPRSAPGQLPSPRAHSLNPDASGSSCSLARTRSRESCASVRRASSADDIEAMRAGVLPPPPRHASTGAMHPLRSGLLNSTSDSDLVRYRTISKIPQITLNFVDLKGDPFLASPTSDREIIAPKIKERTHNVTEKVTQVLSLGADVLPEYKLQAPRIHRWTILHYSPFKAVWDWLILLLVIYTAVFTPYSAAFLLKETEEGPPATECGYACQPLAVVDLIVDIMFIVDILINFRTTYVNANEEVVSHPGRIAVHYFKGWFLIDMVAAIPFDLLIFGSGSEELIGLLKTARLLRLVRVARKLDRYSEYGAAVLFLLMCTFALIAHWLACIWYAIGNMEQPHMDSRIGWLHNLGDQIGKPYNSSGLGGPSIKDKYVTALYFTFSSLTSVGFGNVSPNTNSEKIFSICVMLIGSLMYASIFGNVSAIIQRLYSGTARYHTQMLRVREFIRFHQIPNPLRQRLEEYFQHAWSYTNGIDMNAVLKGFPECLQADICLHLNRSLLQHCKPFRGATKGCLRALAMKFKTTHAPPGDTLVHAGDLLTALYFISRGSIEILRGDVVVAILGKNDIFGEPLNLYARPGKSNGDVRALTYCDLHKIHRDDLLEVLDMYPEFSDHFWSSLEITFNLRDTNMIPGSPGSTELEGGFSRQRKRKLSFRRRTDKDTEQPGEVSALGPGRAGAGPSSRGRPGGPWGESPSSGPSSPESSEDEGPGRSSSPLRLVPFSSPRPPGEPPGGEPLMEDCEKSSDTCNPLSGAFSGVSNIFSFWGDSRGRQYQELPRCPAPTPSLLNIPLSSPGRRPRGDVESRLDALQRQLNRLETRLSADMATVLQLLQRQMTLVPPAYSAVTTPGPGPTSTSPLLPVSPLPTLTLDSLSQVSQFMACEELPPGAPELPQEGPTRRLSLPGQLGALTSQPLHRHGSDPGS
Source text: The rapidly activating potassium channel encoded by the human ether a-go-go-related gene (hERG) is an important ion channel involved in the formation of phase 3 repolarisation of the myocardial action potential. Pharmacological blockade of hERG channels can lead to prolonged cardiac repolarisation with the electrocardiographic manifestation of a prolonged QT interval, known as long QT interval syndrome. Drug-induced delayed ventricular repolarisation can in some cases lead to a fatal arrhythmia, tip-twist ventricular tachycardia.

central nervous system = assay: Central nervous system safety pharmacology; format: in vivo, SD rats; conditions: single oral, males 15-40, females 30-80 mg/kg
Description: All rats were evaluated for cage-side observation, detailed clinical observation, body weight and neurofunctional behavioural indices including in-cage observation, restraint observation, field observation, stimulus reflex observation and body temperature.

[1] = Pharmacokinetics in beagles; format: in vivo; conditions: both sexes, beagle, dog, plasma, po
Source text: Absorption and elimination in the body may both gradually tend towards saturation. In addition, there was no statistically significant difference in plasma pharmacokinetic parameters between female and male beagles administered SY-5007 by gavage alone.

[2] = Tissue distribution in rats; format: in vivo; conditions: both sexes, rat, po, 20 mg/kg gavage
Source text: The exposures in body fat, small intestine, heart, uterus, skeletal muscle, testis and brain were lower than in plasma and the rest were higher than in plasma. The highest exposures were found in the liver, stomach and lung, which were 358, 202 and 173% of plasma, respectively. […] There was no significant sex difference in the exposure of SY-5007 in rat tissues.

[3] = Plasma protein binding, rapid equilibrium dialysis; format: in vitro ADME; conditions: rat, read-out: Plasma protein binding rate (converted)
[4] = Plasma protein binding, rapid equilibrium dialysis; format: in vitro ADME; conditions: human, read-out: Plasma protein binding rate (converted)
CYP2C9 = molecular target: T3, CYP2C9 (Homo sapiens, UniProt P11712); assay: CYP inhibition in human liver microsomes; format: in vitro ADME; conditions: 0.5-25 μM
T3 construct: substrates of different CYP450 enzymes in mixed human liver microsomes; from tissue; host or cells: mixed human liver microsomes
T3 sequence (P11712 whole entry): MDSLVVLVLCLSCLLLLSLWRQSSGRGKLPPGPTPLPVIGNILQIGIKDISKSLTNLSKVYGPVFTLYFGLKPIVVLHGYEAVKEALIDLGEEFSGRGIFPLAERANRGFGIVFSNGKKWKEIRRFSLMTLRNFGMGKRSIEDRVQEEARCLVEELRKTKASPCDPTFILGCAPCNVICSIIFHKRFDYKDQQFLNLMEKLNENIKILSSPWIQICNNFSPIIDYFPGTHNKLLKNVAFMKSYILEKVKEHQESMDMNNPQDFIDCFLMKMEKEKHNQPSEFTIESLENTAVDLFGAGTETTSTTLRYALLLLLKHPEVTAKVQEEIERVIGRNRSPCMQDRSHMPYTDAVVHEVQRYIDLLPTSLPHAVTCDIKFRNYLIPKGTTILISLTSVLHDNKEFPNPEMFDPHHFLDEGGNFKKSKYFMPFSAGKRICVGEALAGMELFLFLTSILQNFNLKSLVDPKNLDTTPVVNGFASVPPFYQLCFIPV

CYP2D6 = molecular target: T4, CYP2D6 (Homo sapiens, UniProt P10635); assay: CYP inhibition in human liver microsomes; format: in vitro ADME; conditions: 0.5-25 μM
T4 construct: substrates of different CYP450 enzymes in mixed human liver microsomes; from tissue; host or cells: mixed human liver microsomes
T4 sequence (P10635 whole entry): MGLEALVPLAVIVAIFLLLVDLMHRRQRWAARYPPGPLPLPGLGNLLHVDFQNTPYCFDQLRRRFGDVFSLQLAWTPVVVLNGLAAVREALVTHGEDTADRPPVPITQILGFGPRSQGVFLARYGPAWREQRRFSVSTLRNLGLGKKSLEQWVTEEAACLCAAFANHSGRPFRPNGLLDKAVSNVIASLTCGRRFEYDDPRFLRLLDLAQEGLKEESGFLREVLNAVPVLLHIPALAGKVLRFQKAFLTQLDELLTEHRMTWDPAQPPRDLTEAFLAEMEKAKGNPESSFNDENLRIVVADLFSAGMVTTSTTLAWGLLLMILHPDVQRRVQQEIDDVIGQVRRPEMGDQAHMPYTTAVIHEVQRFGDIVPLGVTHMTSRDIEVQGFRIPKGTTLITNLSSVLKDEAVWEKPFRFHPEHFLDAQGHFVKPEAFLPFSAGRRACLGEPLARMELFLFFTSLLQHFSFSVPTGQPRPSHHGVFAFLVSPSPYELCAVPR

Caco-2 permeability = format: in vitro ADME, human
beagles = assay: 28-day repeat-dose toxicity; format: in vivo
[5] = tested on: Salmonella typhimurium and Escherichia coli; format: cell-based

COc1ccc(CN2C3CC2CN(c2ccc(-c4cc(N5CC(C)(O)C5)cn5ncc(C#N)c45)cn2)C3)cn1 [SY-5007, 6-(3-hydroxy-3-methylazetidin-1-yl)-4-(6-(6-((6-methoxypyridin-3-yl)methyl)-3,6-diazabicyclo[3.1.1]heptan-3-yl)pyridin-3-yl)pyrazolo[1,5-a]pyridine-3-carbonitrile]
IC50 (RET^G810S): 0.00207 µM | IC50 (RET^WT): 0.000339 µM | IC50 (hERG potassium channel): 3.3 µM | CNS effects (central nervous system): did not affect any of the assessed neurofunctional-behavioural parameters | bioavailability ([1]; 2.5 mg/kg): 56.6% | bioavailability ([1]; 5 mg/kg): 74.1% | bioavailability ([1]; 10 mg/kg): 33.9% | AUC(0-inf) ([1]; gavage 2.5 mg/kg): 3760 ng·h/mL | Cmax ([1]; gavage 2.5 mg/kg): 758 ng/mL | AUC(0-inf) ([1]; gavage 5 mg/kg): 9850 ng·h/mL | Cmax ([1]; gavage 5 mg/kg): 1630 ng/mL | AUC(0-inf) ([1]; gavage 10 mg/kg): 9030 ng·h/mL | Cmax ([1]; gavage 10 mg/kg): 1440 ng/mL | Tmax ([1]; gavage 2.5, 5, 10 mg/kg): 0.5 to 2 h | half-life ([1]; gavage 2.5-10 mg/kg): 4.81 to 7.53 h | MRT inf ([1]; gavage 2.5-10 mg/kg, read-out: MRTINF_obs): 5.75 to 11.4 h | Kp ([2]; brain, read-out: Brain exposure (AUC0~24h)): 0.00195 | Kp ([2]; liver, read-out: Liver exposure (AUC0~24h)): 3.58 | Kp ([2]; lung, read-out: Lung exposure (AUC0~24h)): 1.73 | Kp ([2]; stomach, read-out: Stomach exposure (AUC0~24h)): 2.02 | fraction unbound [3]: 0.034 | fraction unbound [4]: 0.061 | IC50 (CYP2C9): 6.68 µM | IC50 (CYP2D6): > 25 µM | Permeability class (Caco-2 permeability): moderately permeable | HNSTD (beagles; female Beagle, GLP long toxicity study): 8 mg/kg | HNSTD (beagles; females, 28 days): 8 mg/kg | HNSTD (beagles; male Beagle, GLP long toxicity study): 4 mg/kg | HNSTD (beagles; males, 28 days): 4 mg/kg | Bleeding tendency: gastric mucosa and ileum findings (beagles; preclinical Beagle dogs, repeated dosing): ? This drug was found to have gastric mucosal reddening and ileal discolouration in preclinical SD rats and Beagle dogs in repeated dosing tests, so the relevant provisions were made. | Electrolyte abnormalities (blood PK) (beagles; preclinical Beagle repeated administration): ? Abnormalities such as blood PK were found in the preclinical SD rat and Beagle repeated administration test of this product, and the relevant regulations were carried out in consideration of the fact that similar mechanism of action drugs have been reported. | Ames test result [5]: negative
